Several values for one entry are separate records, joined by “and”; a condition that tells them apart may be missing. Equal entries are not always repeated. Where two headings read alike, the source gives them in different places.
Tests used:
[1] = system: S. aureus (SA38); assay: Minimum inhibitory concentration (MIC) assay against S. aureus; assay type: cell-based, Staphylococcus aureus; details: Staphylococcus aureus
[2] = system: E. coli (K12); assay: Minimum inhibitory concentration (MIC) assay against E. coli; assay type: cell-based; details: Escherichia coli
[3] = system: P. aeruginosa (PAO1); assay: Minimum inhibitory concentration (MIC) assay against P. aeruginosa; assay type: cell-based; details: Pseudomonas aeruginosa
[4] = system: pre-established S. aureus biofilms; assay: Disruption of pre-established S. aureus biofilms (crystal violet assay); assay type: cell-based, Staphylococcus aureus
Method: As bacterial biofilms are one of the major challenges in treating bacterial infection, the ability of the synthesised peptidomimetics to disrupt pre-established biofilms was investigated.
(§1) Bacterial cultures (S. aureus and E. coli) were cultured in MHB at 37 °C with shaking at 120 rpm for 24 h. The resulting bacterial culture was washed twice with MHB with centrifugation after each wash. The bacterial solution was then diluted with fresh MHB to a turbidity of OD660 = 0.1 in MHB (equivalent to 10^8 colony forming unit (CFU)/mL of bacteria), followed by diluting to 10^6 CFU/mL in MHB. A total of 200 µL of the bacterial solution was dispensed to wells in a flat-bottom 96-well plate (Costar). The biofilm was then grown in the plate at 37 °C for 24 h. After incubation, loosely bound cells were washed away with 1× phosphate-buffered saline (PBS, pH 7.4). The biofilms were then supplemented with different concentrations of peptidomimetics dissolved in DMSO and incubated at 37 °C with shaking at 120 rpm for a further 24 h. Biofilms adhered on the plate substratum were quantified, using crystal violet staining as described previously. The experiment was performed in triplicate.

[5] = system: S. aureus biofilm formation; assay: Inhibition of S. aureus biofilm formation (crystal violet staining); assay type: cell-based, Staphylococcus aureus
Method: In this assay, S. aureus was incubated in the presence of different concentrations of the tested peptidomimetics under a static condition. After overnight incubation, planktonic bacteria were removed, and the remaining biofilms were quantified, using crystal violet staining.
S. aureus was cultured in Muller Hinton broth (MHB; Oxoid) at 37 °C with shaking at 120 rpm for 24 h. The resulting bacterial culture was washed twice with MHB with centrifugation after each wash. The bacterial solution was then diluted with fresh MHB to a turbidity of OD660 = 0.1 in MHB (equivalent to 10^8 colony forming unit (CFU)/mL of bacteria), followed by diluting to 10^6 CFU/mL in MHB. A total of 100 µL of the bacterial solution was added to wells of a 96-well plate (Costar; Sigma-Aldrich, St. Louis, MO, USA) containing 100 µL serially diluted peptidomimetics. After incubation at 37 °C for 24 h, loosely bound cells were washed away with 1× phosphate-buffered saline (PBS, pH 7.4). Biofilms adhered on the plate substratum were quantified, using crystal violet staining as described previously. Untreated bacteria were used as a negative control, where the percentage of biofilm mass reflected 100% biofilm growth. The experiment was performed in triplicate.

[6] = system: S. aureus cytoplasmic membrane; assay: Cytoplasmic membrane permeability assay (diSC3-5 dye release); assay type: cell-based, Staphylococcus aureus; details: 1× and 2× MIC, read up to 15 min
Description: This dye readily partitions into and aggregates in bacterial cell membranes, quenching its own fluorescence. However, structural damage to the bacterial cell membrane causes a loss in the membrane potential, which results in the leakage of dye from the bacterial cell membrane into the medium and an increase in fluorescence intensity. By detecting changes in fluorescence intensity, the integrity of the bacterial cytoplasmic membrane can be monitored.
Membrane potential sensitive dye diSC3–5 (3,3′-dipropylthiadicarbocyanine iodide), which penetrates inside bacterial cells depending on the membrane potential gradient of the cytoplasmic membrane, was used to determine the bacterial cytoplasmic membrane permeability following the procedure previously described with slight modification. Bacteria (S. aureus) were incubated in MHB with shaking at 37 °C for 16 h. After incubation, the bacteria were washed with 5 mM HEPES, supplemented with 20 mM glucose at pH 7.2 and diluted in the same buffer to an OD600 0.05–0.06 (equivalent to a final concentration of 10^7 CFU/mL bacteria). The diSC3–5 dye was added at 4 μM to the bacterial suspension. […] Fluorescence due to the release of dye was measured with a FLUOstar Omega (BMG Labtech) microplate reader at 5 min intervals at an excitation wavelength of 621 nm and an emission wavelength of 670 nm.

[7] = system: MRC-5 normal human lung fibroblasts; assay: MTT cytotoxicity assay; assay type: cell-based; details: Homo sapiens, MRC5, 72 h, 72 h drug incubation, read-out: IC50 against MRC-5 normal human lung fibroblasts
Method: The IC50 values of the tested peptidomimetics were determined from a dose-response curve. […] The therapeutic indices for each tested peptidomimetic against Gram-positive S. aureus and Gram-negative E. coli were calculated by dividing the IC50 value against human cells by the corresponding MIC value (Table 2).
The toxicity of the peptidomimetics against normal human lung fibroblasts MRC-5 cells was measured, using an MTT (3-(4,5-dimethylthiazol-2-yl)-2,5-diphenyltetrazolium bromide) (Sigma Aldrich, St. Louis, MO, USA) colorimetric assay. The cells were cultured in minimal essential medium (MEM, Invitrogen) containing 10% foetal bovine serum (FBS). The cells were maintained at 37 °C in 5% CO2 as an adherent monolayer and was passaged upon reaching confluence by standard cell culture techniques. MRC-5 cells were seeded at 5000 cells/well in 96-well plates to ensure full confluence (quiescence) and left overnight to adhere to the plate wells. The adherent cells were treated with 1–500 μM of compounds by dissolving in DMSO and serially diluting with media. TY-01 was used as the positive control. The final concentration of DMSO was 0.5% (v/v). After the 72 h drug incubation, […] stock MTT solution (5 mg/mL) was added, and the cells were incubated for another 3.5–4 h. The MTT solution containing media was carefully aspirated without displacing the purple crystals from the bottom, and […] acid-isopropanol was added to all wells and mixed slowly by shaking with an orbital shaker to dissolve the dark blue crystals. […] The determination of IC50 values was performed using GraphPad Prism 7 (GraphPad, San Diego, CA, USA). Each experiment was performed in triplicate and was repeated in three independent experiments.

[8] = Haemolysis assay; assay type: cell-based; details: washed human red blood cells
Method: A total of 20 mL of human blood collected in EDTA coated tubes was transferred into a 50 mL centrifuge tube and centrifuged at 500× g (700) for 5 min. The supernatant plasma was discarded and an equal volume of 1× PBS was added. The washing was repeated five times with cells mixed by inversion. The washed pallet was then resuspended in 1:10 with PBS to yield an RBC concentration of ~5 × 10^8 RBC/mL. The peptidomimetics were serially diluted with PBS, with final concentrations ranging from 8 to 500 µM. Milli-Q water and 1× PBS were used as positive and negative controls. The cells were then incubated at 37 °C for 3 h. Following incubation, the suspension was centrifuged at 1100× g for 5 min. The final optical density was measured at 540 nm. The percentage of haemolysis was calculated, using the following equation. % haemolysis=(absorbance of test sample−absorbance of diluent)/(absorbance of positive control−absorbance of diluent)×100%

[9] = system: pre-established S. aureus biofilms; parameters: method as in PMID 27405275; details: 4× MIC; cited from earlier work
[10] = system: pre-established E. coli biofilms; assay: Disruption of pre-established E. coli biofilms (crystal violet assay); assay type: cell-based, Escherichia coli; details: 2× MIC, 24 h treatment (64 μM for 17c)
Method: as §1

[11] = S. aureus SA38, read-out: MIC S. aureus
[12] = in trypticase soy broth (TSB), Mueller Hinton broth (MHB) or cationic adjusted MHB, read-out: MIC S. aureus in different growth media
[13] = highest concentration tested 250 μM

CCCCCCCCS(=O)(=O)Nc1ccc(-c2ccc(-c3ccccc3)cc2)cc1C(=O)C(=O)NCCC[N+](C)(C)C.[I-] [Compound 16d, N,N,N-Trimethyl-3-(2-(4-(octylsulfonamido)-[1,1′:4′,1″-terphenyl]-3-yl)-2-oxoacetamido)propan-1-aminium iodide]
MIC [1, 11]: 4 µM and 2.9 µg/mL
MIC [1, 12]: 4 µM and 2.9 µg/mL
MIC [2]: > 250 µM and > 180 µg/mL
MIC [3]: > 180 µg/mL
MIC [3, 13]: > 250 µM
disruption of pre-established S. aureus biofilms ([4]; 1× MIC, 24 h treatment): no antibiofilm activity
inhibition of S. aureus biofilm formation ([5]; 0.5× MIC (sub-MIC)): 35%
S. aureus cytoplasmic membrane disruption (increase in fluorescence intensity) [6]: least active compound
IC50 [7]: 53.7 µM and 38.6 µg/mL
hemolysis at 3 h, 32 µM [8]: 11%

LL-37: cathelicidin (LL-37), antimicrobial peptide in phase IIb clinical trials for the treatment of chronic leg ulcers (LLGDFFRKSKEKIGKEFKRIVQRIKDFLRNLVPRTES; Antibacterial peptide LL-37; UniProt P49913 134-170, looked up)
disruption of pre-established S. aureus biofilms [9]: about 40%

CCCCCCCCCCCCS(=O)(=O)Nc1ccc(-c2ccccc2)cc1C(=O)C(=O)NCCC[N+](C)(C)C.[I-] [Compound 17c, 3-(2-(4-(Dodecylsulfonamido)-[1,1′-biphenyl]-3-yl)-2-oxoacetamido)-N,N,N-trimethylpropan-1-aminium iodide]
MIC [1, 11]: 8 µM and 5.6 µg/mL
MIC [1, 12]: 8 µM and 5.6 µg/mL
MIC [2]: 32 µM
MIC [3]: > 175 µg/mL
MIC [3, 13]: > 250 µM
disruption of pre-established S. aureus biofilms ([4]; 1× MIC, 24 h treatment): 20–36%
disruption of pre-established S. aureus biofilms ([4]; 4× MIC, 24 h treatment (32 μM for 17c)): 44%
disruption of pre-established E. coli biofilms [10]: 28%
inhibition of S. aureus biofilm formation ([5]; 0.5× MIC (sub-MIC)): 56%
inhibition of S. aureus biofilm formation ([5]; 2× MIC (16 μM for 17c)): 70%
inhibition of S. aureus biofilm formation ([5]; 4× MIC): 65%
IC50 [7]: 57.5 µM and 40.2 µg/mL
hemolysis at 3 h, 32 µM [8]: 16%
